In patent publication US20220295791A1, “METHODS FOR VIRAL INACTIVATION BY ENVIRONMENTALLY COMPATIBLE DETERGENTS” (Eli Lilly and Company, priority 2019, published 2022) one finds XMuLV inactivation and enveloped viral inactivation data, which are given here for two molecules.

The subject of experiment [1] is XMuLV. The format is cell-based, Xenotropic Murine Leukemiavirus.
For experiment [2], the system named is enveloped viral inactivation. As to conditions: under a diverse set of experimental conditions; cited from earlier work.

With `CC(O)CO` (centres unmarked) [monopropylene glycol], the XMuLV inactivation result in experiment [1] was “not inactivate XMuLV”.
Consider Triton X-100, for which the enveloped viral inactivation result in experiment [2] is reported as “greater than 4 logs”.
